Source: patent US20200386742A1, “CELL SYSTEMS USING SPHEROIDS AND METHODS OF MAKING AND USING THE SAME” (priority 2017, published 2020)

Test system: embryonic dorsal root ganglion (DRG) explants
Type: cell-based

Structure (SMILES): NC1=N[C@H](O)[C@H]2[C@H]3O[C@]4(O)O[C@@H]([C@@H](O)[C@@]2(N1)[C@@H]4O)[C@]3(O)CO [tetrodotoxin]
- effect on electrically evoked compound action potentials (CAPs): reversibly abolished
